The values below come from ChEMBL document CHEMBL1201862, “PubChem BioAssay data set” (2004).

SMILES strings stand for the structures. Active and inactive are the calls of the source.

In test [1] the target is T1, Sentrin-specific protease 8 (Homo sapiens, UniProt Q96LD8).
T1 sequence (Q96LD8 whole entry): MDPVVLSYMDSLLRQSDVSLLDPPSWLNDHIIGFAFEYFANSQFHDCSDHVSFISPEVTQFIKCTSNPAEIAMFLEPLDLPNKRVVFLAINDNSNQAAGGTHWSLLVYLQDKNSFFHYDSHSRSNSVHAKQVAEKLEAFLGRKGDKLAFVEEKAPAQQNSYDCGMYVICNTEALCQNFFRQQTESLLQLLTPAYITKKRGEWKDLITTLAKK
The test is classed as functional.

Test [2] addresses T1, Sentrin-specific protease 8. The test is classed as functional. This is another data set of the same source.
Test [3] relates to Vero. Put plainly: viability of Vero cells under compound – cytotoxicity control for flavivirus capping enzyme inhibitors (AID 588742). In kind it is functional. To be noted: Chlorocebus sabaeus.
Test [4] has as its target T2, Cytochrome P450 1A2 (Homo sapiens, UniProt P05177).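 Note: PubChem cytochrome P450 panel assay, CYP1A2 panel member.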
T2 sequence (P05177 whole entry): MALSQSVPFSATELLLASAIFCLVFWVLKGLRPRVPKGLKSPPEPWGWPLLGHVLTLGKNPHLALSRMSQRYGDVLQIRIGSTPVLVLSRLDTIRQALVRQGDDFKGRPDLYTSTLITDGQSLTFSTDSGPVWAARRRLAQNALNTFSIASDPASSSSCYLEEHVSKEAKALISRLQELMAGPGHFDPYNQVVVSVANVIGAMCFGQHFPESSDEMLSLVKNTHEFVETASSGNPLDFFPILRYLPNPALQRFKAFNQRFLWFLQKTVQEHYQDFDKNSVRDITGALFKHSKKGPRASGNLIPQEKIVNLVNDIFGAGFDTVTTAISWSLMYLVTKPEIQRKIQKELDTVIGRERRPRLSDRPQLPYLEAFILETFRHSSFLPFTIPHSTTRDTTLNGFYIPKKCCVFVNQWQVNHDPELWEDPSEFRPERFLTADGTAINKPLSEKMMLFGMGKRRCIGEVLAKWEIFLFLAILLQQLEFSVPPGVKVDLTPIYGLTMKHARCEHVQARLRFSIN

Test [5] addresses Genome polyprotein (dengue virus type 2, UniProt P29990). Kind of test: flavivirus cap methylation enzyme inhibition – biochemical, confirmation dose response, primary screen (AID 588689). In kind it is functional.
For test [6], the target named is T3, Low molecular weight phosphotyrosine protein phosphatase (Homo sapiens, UniProt P24666).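 Note: Dose-response confirmation assay measuring inhibition of LMPTP enzyme activity by fluorescence intensity read-out.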
T3 sequence (P24666 whole entry): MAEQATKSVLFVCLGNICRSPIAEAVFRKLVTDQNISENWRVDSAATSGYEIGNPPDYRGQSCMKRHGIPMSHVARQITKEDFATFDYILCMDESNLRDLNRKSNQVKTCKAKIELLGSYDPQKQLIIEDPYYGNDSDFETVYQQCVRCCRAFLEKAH
The test is classed as functional. To be noted: read-out: IC50_Mean.

Test [7] has as its target T4, Carboxy-terminal domain RNA polymerase II polypeptide A small phosphatase 1 (Homo sapiens, UniProt Q9GZU7).
T4 sequence (Q9GZU7 whole entry): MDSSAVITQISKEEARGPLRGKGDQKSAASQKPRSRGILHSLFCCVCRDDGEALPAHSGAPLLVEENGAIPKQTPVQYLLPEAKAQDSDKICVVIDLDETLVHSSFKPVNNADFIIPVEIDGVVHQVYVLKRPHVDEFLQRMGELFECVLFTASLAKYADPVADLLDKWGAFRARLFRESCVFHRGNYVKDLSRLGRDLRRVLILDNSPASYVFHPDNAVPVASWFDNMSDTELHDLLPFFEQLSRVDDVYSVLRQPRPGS
Put plainly: CTDSP1 inhibitors, concentration-response, biochemical, absorbance readout, ultra-high-throughput screen actives (AID 540297). The test is classed as functional.

Test [8] in a line: Luminescence Cell-Based Dose Response HTS to Identify Inhibitors of 5'UTR Stem-Loop Driven Prion Protein mRNA Translation in H4 Neuroglioblastoma Cells. [Related pubchem assays: 1827 (Project Summary), 1813 (Primary HTS)]. In kind it is functional.
Test [9] relates to Streptococcus sp. 'group A'. Put plainly: Streptococcus pyogenes SK(-)GAS viability under kanamycin – luminescence, BacTiterGlo, confirmation, counter-screen for streptokinase expression inhibitor project, dose response (AID 1900). The test is classed as functional, organism-based. On the technique in general: A counterscreen serves to expose hits that act by an unwanted route or on another target.

A short description of test [10]: luciferase reporter signal suppression in cells – H4 neuroglioma cells, luminescence, dose response (AID 1990). The test is classed as functional, cell-based. In general terms: Reporter assays use an easily measured gene product as a stand-in for the process of interest.
For test [11], the system named is Vero. Put plainly: cells. In kind it is functional. To be noted: Chlorocebus sabaeus.
Test [12] relates to Streptococcus. Kind of test: GAS UMAA2166 growth inhibition – luminescence, BacTiterGlo, counter-screen for streptokinase expression inhibitor project, dose response (AID 1915).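 Note: potency for reduction of bacterial viability or growth.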 In kind it is functional, organism-based.
The target in test [13] is T5, Histone-lysine N-methyltransferase NSD2 (Homo sapiens, UniProt O96028).
T5 sequence (O96028 whole entry): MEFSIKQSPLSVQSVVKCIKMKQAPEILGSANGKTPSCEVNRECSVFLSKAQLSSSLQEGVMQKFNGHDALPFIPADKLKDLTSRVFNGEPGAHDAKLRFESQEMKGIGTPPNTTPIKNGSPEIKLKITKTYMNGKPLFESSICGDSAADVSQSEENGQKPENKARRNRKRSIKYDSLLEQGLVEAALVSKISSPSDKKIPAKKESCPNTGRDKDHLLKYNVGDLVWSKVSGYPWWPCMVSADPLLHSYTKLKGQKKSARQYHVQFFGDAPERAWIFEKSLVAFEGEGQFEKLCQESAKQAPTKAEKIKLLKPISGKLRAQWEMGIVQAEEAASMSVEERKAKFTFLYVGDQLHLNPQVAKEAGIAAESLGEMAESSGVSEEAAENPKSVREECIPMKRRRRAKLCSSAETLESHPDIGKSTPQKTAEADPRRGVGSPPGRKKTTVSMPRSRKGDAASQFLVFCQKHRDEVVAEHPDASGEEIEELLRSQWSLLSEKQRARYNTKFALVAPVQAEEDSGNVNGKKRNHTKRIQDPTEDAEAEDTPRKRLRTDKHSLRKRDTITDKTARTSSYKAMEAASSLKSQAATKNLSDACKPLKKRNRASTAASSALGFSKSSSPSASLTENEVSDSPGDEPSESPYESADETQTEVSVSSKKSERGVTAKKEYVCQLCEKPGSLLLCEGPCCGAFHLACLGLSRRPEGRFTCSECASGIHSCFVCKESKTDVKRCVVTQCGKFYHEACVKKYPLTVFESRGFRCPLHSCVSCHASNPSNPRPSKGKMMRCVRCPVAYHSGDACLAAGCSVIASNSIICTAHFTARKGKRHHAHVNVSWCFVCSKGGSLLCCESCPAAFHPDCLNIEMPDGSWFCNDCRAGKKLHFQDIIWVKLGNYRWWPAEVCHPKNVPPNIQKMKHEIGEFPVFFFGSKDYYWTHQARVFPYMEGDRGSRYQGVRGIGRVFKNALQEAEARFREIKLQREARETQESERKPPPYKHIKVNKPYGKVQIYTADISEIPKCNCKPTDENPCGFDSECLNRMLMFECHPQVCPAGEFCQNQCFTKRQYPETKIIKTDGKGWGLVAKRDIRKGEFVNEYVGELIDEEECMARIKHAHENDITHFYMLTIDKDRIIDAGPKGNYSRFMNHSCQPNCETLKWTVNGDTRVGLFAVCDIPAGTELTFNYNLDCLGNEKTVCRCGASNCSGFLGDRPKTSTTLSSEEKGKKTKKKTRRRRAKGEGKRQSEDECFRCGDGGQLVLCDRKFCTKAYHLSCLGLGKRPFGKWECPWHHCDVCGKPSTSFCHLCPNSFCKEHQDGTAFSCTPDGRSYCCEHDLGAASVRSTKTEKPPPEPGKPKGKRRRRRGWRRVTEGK
The test is classed as biochemical.

Test [14] has as its target T6, Streptokinase A (Streptococcus pyogenes serotype M1, UniProt P10520).
T6 sequence (P10520 whole entry): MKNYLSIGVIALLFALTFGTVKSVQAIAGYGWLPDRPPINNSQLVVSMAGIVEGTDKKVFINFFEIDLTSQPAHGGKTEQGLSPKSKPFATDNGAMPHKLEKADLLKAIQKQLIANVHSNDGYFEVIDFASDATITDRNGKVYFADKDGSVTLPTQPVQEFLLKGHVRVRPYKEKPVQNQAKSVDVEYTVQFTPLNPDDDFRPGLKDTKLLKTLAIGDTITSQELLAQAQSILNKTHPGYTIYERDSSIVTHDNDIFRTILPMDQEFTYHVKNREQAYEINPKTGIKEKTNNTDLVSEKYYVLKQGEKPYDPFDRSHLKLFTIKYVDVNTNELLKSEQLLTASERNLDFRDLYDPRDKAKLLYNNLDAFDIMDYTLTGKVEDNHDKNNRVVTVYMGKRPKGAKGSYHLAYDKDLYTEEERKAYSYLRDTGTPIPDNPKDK
Kind of test: viability-normalized secreted streptokinase activity reduction – plasminogen activation absorbance, OD405, dose response (AID 1914).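 Note: secreted streptokinase activity via plasminogen activation per viability signal from cell pellet.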 In kind it is functional, Streptococcus pyogenes M1 GAS.

Test [15] deals with T7, Heat shock factor protein 1 (Mus musculus, UniProt P38532).
T7 sequence (P38532 whole entry): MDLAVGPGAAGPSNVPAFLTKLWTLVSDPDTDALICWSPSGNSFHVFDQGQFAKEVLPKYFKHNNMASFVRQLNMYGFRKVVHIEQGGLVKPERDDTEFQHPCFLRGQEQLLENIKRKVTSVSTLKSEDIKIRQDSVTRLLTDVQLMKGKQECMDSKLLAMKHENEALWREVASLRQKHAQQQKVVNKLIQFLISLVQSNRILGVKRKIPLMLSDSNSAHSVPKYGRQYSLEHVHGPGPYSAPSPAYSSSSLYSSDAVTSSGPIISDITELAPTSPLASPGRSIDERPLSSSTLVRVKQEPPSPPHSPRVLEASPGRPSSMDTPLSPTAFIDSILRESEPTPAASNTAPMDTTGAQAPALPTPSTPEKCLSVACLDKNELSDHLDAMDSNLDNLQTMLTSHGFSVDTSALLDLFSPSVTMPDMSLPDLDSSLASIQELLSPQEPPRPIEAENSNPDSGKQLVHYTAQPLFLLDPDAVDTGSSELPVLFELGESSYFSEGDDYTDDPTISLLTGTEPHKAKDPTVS
Kind of test: enhancement of HSF1-driven luciferase signal – cell-based, NIH3T3, luminescence, dose retest, confirmation (AID 435004).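 Note: stress induced by proteasome inhibitor MG132 added 30 min after compound; luciferase reporter driven by HSF1 response element in NIH3T3 cells; actives raise luminescence as potentiators of the MG132 stress response.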 The test is classed as functional.

In test [16] the target is T8, High affinity choline transporter 1 (Homo sapiens, UniProt Q9GZV3).
T8 sequence (Q9GZV3 whole entry): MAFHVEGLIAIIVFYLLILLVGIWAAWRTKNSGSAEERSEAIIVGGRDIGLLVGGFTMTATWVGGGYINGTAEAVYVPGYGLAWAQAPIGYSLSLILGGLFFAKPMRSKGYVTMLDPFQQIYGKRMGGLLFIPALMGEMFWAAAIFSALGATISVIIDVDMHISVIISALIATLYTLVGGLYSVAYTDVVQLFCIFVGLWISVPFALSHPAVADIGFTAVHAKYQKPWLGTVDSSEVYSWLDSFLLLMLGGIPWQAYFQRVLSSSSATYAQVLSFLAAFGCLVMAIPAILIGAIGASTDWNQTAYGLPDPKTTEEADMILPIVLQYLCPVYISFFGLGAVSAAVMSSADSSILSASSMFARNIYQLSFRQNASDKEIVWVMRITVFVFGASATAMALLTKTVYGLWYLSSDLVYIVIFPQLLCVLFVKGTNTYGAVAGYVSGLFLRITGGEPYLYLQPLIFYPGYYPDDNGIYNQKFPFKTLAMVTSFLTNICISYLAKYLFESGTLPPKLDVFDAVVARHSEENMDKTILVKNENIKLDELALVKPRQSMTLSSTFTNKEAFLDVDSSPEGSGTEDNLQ
Put plainly: human choline transporter blockers, potency – cell-based, 5-point CRC, membrane potential dye, dose response (AID 504840). The test is classed as functional.

In test [17] the target is T9, Fatty acid synthase (Homo sapiens, UniProt P49327). Put plainly: inhibition of human FAS-TE enzyme activity – biochemical, endpoint fluorescence intensity, uHTS hits, dose response (AID 624327).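 Note: fluorescence from hydrolysis of an O-methyl fluorescein acyl ester substrate by the enzyme.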 In kind it is functional.
Test [18] addresses T9, Fatty acid synthase. Put plainly: inhibition of human FAS-TE enzyme activity – biochemical, kinetic fluorescence intensity, dose response (AID 624326).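 Note: rate of fluorescence rise from hydrolysis of a fluorogenic O-methyl fluorescein ester substrate.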 The test is classed as functional.

Sequence of Genome polyprotein (P29990 2492-3391 limits assumed): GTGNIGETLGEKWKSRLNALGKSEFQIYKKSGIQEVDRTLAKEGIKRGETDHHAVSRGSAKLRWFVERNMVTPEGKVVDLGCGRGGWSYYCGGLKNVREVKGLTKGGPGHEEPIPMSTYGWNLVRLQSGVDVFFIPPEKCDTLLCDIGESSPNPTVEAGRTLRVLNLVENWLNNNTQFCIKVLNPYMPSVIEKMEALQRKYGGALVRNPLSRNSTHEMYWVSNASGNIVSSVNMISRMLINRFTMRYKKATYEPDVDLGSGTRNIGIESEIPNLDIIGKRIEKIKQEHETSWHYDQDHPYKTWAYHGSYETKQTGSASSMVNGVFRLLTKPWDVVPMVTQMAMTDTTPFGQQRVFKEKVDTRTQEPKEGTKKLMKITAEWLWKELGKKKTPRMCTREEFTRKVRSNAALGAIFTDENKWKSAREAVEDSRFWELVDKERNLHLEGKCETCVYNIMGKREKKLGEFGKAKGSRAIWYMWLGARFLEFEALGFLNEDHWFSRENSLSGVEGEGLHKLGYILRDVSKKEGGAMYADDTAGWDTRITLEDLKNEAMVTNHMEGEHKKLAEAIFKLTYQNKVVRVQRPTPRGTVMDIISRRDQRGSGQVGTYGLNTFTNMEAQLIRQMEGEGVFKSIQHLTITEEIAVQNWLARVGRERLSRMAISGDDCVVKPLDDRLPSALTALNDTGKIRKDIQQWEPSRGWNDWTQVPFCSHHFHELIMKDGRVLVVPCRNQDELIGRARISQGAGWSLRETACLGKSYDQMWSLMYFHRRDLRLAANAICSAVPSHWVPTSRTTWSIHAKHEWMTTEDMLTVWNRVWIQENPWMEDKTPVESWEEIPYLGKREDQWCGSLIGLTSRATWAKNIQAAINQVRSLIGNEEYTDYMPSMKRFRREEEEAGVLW
T9 sequence (P49327 whole entry): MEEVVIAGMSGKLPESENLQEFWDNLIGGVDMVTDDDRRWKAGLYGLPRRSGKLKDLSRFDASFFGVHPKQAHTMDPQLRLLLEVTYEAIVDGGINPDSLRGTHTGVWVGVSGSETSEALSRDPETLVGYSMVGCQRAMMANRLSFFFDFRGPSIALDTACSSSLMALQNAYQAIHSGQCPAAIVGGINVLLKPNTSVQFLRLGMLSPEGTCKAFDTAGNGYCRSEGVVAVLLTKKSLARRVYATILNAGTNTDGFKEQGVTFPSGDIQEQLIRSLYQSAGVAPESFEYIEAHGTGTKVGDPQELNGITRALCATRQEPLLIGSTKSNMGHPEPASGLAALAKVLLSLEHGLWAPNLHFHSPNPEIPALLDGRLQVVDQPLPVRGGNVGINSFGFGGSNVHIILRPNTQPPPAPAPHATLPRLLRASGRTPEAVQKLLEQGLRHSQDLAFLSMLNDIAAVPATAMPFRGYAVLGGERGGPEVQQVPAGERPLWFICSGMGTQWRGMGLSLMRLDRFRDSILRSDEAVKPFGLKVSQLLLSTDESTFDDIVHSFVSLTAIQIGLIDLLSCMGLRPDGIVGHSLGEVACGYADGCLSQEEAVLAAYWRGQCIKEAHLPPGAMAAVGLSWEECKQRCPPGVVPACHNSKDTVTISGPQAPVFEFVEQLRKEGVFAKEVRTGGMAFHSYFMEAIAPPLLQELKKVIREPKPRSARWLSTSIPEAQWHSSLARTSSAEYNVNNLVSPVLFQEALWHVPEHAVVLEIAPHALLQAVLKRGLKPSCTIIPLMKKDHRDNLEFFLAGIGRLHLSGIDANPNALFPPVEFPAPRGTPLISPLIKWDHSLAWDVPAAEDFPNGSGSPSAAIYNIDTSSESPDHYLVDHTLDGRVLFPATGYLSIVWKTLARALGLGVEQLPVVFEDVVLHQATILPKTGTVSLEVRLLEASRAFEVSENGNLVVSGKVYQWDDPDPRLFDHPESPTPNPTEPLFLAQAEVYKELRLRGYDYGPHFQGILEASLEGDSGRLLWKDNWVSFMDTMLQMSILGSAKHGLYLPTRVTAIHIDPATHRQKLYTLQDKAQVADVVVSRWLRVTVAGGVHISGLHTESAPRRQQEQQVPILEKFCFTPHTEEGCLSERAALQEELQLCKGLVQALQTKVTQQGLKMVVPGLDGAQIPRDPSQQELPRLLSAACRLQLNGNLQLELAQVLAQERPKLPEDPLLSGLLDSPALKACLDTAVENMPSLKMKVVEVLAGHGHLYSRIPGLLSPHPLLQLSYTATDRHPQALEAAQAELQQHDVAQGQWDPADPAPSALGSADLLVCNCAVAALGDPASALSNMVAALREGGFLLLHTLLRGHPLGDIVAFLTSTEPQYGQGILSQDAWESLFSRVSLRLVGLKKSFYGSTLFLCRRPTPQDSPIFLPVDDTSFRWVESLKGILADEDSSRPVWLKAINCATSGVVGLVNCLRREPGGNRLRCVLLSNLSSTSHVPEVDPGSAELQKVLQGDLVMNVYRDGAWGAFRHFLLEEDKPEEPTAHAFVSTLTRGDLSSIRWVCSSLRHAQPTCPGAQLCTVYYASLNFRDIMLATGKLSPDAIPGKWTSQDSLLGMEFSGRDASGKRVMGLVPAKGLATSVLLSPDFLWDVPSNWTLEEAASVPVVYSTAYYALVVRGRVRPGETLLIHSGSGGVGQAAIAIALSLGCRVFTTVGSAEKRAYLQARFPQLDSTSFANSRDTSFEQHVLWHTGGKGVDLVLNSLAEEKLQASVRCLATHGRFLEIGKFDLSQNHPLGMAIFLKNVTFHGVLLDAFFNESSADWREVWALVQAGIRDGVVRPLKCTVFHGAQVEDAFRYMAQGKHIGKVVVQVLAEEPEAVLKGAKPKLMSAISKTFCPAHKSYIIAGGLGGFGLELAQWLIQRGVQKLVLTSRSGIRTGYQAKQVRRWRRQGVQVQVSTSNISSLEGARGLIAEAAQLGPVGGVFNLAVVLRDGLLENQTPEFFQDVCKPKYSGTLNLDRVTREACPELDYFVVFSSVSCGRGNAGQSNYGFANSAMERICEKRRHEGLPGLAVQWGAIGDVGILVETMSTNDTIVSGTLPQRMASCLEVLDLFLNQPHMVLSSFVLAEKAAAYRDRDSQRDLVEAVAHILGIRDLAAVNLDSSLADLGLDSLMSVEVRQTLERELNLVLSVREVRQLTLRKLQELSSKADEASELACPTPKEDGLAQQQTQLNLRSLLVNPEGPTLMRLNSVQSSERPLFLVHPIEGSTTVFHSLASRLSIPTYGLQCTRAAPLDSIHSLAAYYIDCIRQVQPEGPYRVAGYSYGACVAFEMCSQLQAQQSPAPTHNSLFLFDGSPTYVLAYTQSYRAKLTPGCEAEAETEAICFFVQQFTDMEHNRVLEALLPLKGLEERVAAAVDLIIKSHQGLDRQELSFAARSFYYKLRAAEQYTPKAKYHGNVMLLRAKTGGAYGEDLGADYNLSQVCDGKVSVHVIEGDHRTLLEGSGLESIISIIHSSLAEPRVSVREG

As to `Cc1cc(=O)n(-c2ccc3ccccc3n2)[nH]1`, the IC50 in test [1] was 24.2 µM (active); in [2], 30.4 µM (active).

Usually CC50 stands for the concentration giving 50% cytotoxicity. Usually AC50 stands for the midpoint of the concentration-response curve, whichever way the signal moves. Take `Cc1sc2c(c1C)C(c1ccc(C(C)(C)C)cc1)=NCC(=O)N2CC(=O)Nc1nccs1`: the cytotoxic concentration (CC50) in [3] was > 40 µM (active). Also, in test [4], the AC50 is 22.4 µM (inconclusive).

For `NC(=S)N=Nc1c(O)cc(O)c2nc(O)ccc12`, the CC50 in [3] was > 40 µM (active). The IC50 in test [5] was 20 µM (active).

On to `O=C(O)c1ccc(Nc2nc(-c3ccc([N+](=O)[O-])cc3)nc3ccccc23)cc1`, for which the IC50 was 10.9 µM (active) in test [6] and 4.57 µM (active) in test [7].

Usually EC50 stands for the concentration needed to bring the measured effect to its halfway point. On to `Cc1n[nH]c(O)c1C(c1c(C)n[nH]c1O)c1cn(Cc2ccc(Cl)c(Cl)c2)c2ccccc12`, for which the figures for the CC50 in [3] and in test [11] were 5.47 µM (active) and 10.1 µM (active), respectively. The EC50 in [8] was 0.26 µM (active); in test [9], 4.35 µM (active); in [10], 13.6 µM (active); in test [12] it was 77.9 µM (active).

For the compound `Cc1ccc(S(=O)(=O)/N=C2\C=C(NS(=O)(=O)c3ccccc3)C(=O)c3ccccc32)cc1`, the CC50 in test [3] was > 40 µM (active). Besides, the concentration at half-maximal activity (AC50) in test [13] was 2.18 µM (active). Besides, in [5], the IC50 was 35.8 µM (active).

For the compound `Cc1[nH][nH]c(=O)c1C(c1c(C)[nH][nH]c1=O)c1cn(Cc2ccc(Cl)c(Cl)c2)c2ccccc12`, the half-maximal effective concentration (EC50) in test [14] is 10.1 µM (active); in [15], 27 µM (active). The IC50 in test [1] was 5.81 µM (active); in test [2], 6.19 µM (active).

On to `C/C(=N\NS(=O)(=O)c1ccc(Cl)c([N+](=O)[O-])c1)c1cc2ccccc2o1`, for which the IC50 is 4.37 µM (active) in test [16], 12.3 µM (active) in test [17], 80 µM (inactive) in [6] and 15.6 µM (active) in test [18].
